{"source": "ChEMBL document CHEMBL3872258", "about": "“Challenges in the development of an M4 PAM in vivo tool compound: The discovery of VU0467154 and unexpected DMPK profiles of close analogs” (Bioorg Med Chem Lett, 2017)", "key": {"[1]": {"molecular_target": "Voltage-dependent L-type calcium channel subunit alpha-1C (Homo sapiens, UniProt Q13936)", "sequence (Q13936 whole entry)": "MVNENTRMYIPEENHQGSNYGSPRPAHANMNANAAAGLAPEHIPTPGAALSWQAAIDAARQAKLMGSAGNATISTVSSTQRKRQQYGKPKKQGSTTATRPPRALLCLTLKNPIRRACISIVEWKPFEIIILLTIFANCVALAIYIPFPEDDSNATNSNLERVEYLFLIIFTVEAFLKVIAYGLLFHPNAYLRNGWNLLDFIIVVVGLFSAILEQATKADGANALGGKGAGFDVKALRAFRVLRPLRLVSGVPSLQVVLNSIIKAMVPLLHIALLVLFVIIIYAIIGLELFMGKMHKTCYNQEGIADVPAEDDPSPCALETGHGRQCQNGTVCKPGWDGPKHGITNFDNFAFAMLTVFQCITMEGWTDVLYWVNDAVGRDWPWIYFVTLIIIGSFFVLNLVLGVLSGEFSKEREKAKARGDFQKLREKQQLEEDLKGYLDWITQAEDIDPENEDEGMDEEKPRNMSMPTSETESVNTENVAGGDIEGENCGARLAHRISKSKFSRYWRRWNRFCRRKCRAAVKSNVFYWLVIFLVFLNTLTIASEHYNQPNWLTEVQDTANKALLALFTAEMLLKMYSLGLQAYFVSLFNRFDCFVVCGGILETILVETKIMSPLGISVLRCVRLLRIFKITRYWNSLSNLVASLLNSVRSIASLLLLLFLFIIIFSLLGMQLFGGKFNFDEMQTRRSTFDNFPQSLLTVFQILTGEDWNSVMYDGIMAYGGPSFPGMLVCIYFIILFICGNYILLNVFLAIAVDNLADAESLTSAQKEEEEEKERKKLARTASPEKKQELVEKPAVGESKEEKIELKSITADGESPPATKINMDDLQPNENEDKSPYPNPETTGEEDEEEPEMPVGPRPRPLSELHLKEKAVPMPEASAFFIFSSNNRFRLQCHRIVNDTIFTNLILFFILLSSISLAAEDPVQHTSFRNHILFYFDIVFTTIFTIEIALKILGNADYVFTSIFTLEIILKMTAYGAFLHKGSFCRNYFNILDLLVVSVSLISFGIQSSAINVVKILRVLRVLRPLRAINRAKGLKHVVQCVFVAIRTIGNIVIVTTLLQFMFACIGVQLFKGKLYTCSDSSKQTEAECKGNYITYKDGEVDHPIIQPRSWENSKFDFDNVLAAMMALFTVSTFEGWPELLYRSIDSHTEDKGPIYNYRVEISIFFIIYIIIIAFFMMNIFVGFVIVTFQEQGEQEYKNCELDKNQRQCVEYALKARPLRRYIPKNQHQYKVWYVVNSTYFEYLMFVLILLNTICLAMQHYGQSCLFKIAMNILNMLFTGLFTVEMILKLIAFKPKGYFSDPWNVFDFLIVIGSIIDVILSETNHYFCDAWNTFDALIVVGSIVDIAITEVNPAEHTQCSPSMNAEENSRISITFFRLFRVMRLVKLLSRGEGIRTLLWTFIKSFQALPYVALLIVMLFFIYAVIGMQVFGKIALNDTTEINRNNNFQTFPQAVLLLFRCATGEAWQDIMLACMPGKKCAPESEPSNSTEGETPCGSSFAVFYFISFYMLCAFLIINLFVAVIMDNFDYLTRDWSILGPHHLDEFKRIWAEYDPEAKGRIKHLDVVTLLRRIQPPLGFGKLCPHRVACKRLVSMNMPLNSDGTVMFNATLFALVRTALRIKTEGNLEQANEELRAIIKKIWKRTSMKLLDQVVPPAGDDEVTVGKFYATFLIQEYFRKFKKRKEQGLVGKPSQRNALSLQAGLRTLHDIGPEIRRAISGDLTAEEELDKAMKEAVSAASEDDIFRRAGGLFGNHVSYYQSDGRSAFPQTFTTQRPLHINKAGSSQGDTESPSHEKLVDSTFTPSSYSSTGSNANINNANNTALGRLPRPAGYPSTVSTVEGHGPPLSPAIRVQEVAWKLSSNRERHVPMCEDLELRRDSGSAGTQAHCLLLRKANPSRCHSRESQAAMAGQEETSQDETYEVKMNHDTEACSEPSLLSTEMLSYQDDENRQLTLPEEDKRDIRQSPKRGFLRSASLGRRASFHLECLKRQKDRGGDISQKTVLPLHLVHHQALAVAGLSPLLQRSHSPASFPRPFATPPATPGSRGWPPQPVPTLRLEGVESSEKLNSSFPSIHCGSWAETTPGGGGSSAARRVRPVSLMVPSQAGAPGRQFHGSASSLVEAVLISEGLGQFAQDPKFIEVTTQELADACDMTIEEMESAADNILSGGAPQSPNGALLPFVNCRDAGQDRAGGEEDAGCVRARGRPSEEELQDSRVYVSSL", "assay": "Binding affinity to human Cav1.2 by radio-ligand binding assay"}, "[2]": {"assay": "Inhibition of human adenosine transporter assessed as reduction in [3H]-adenosine uptake"}, "[3]": {"molecular_target": "Growth hormone secretagogue receptor type 1 (Homo sapiens, UniProt Q92847)", "sequence (Q92847 whole entry)": "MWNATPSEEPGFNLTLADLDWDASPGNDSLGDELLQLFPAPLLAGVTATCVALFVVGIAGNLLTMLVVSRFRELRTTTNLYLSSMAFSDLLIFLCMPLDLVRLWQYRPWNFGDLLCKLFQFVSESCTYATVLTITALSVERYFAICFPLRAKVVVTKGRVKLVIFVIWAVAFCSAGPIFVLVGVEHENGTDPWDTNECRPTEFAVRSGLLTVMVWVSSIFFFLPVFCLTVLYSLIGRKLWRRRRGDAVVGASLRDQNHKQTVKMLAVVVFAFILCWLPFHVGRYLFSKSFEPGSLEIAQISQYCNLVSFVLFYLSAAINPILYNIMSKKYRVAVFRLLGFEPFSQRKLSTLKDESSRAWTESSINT", "assay": "Inhibition of ghrelin receptor (unknown origin) by radioligand binding assay"}}, "data": [{"smiles": "Cc1nnc2sc(C(=O)NCc3ccc(S(=O)(=O)C(F)F)cc3)c(N)c2c1C", "values": [{"measurement": "IC50", "setting": "[1]", "result": 5.7, "unit": "µM"}]}, {"smiles": "Cc1nnc2sc(C(=O)NCc3ccc(S(=O)(=O)C(F)(F)F)cc3)c(N)c2c1C", "values": [{"measurement": "IC50", "setting": "[2]", "result": 0.24, "unit": "µM"}]}, {"smiles": "Cc1nnc2sc(C(=O)NCc3ccc(S(F)(F)(F)(F)F)cc3)c(N)c2c1C", "values": [{"measurement": "IC50", "setting": "[3]", "result": 6.5, "unit": "µM"}]}]}
